US20050009005A1, “Methods of using quantitative lipid metabolome data” (Lipomics Technologies, Inc., priority 2001, published 2005)

Test system: de novo fatty acid synthesis
Assay: Lipid metabolite profile of plasma, heart, liver and inguinal adipose of CL316,243-treated mice (trial 2; Tables 7 and 8)
Format: in vivo
Settings: for Total n9 / 14:0 / 16:0 / 16:1n7 / 18:0 / 18:1n7 / 18:1n9 / Saturates / Total n7 / Total nMole of FA: mean
Text: It is understood that the described methods can be used to analyze lipid metabolites from other subjects, including particularly animals other than mice.
Mouse tissue and plasma samples were a generous donation to Lipomics Technologies, Inc., from Dr. Edward Leiter of the Jackson Laboratory (Bar Harbor, Me.). Samples included the plasma, heart, liver and inguinal adipose of mice treated with pharmaceuticals or their corresponding controls.
In trial 2, male, inbred NON mice were fed a control with or without the presence of the β-3 adrenergic agonist CL316,243 for four weeks (at 0.001% CL316,243 by weight in the dietary chow).
In both studies, five treated and five control mice were used. Following the treatments and the killing of the mice, tissues and plasma were taken, chilled to −80 ° C. and shipped to the analysis laboratory at Lipomics Technologies in a frozen state.
Tissue processing and lipid extraction, including provision of internal standards, was carried out essentially as described in Watkins et al. (J. Lipid Res. Papers in Press, 10.1184/jlf.M200169-JLF200, published August 16, 2002), and in co-owned international application PCT/US02/21426, entitled “GENERATING, VIEWING, INTERPRETING, AND UTILIZING A QUANTITATIVE DATABASE OF METABOLITES,” both of which are incorporated in their entirety herein by reference.
The separation of lipid classes was performed in some instance by preparative thin-layer chromatography (TLC). To remove any residual metal or other damaging contaminants on the TLC plates, each plate was washed prior to use. Washing the plates is a three-step process that involves impregnating each plate with ethylenediamine tetraacetic acid (EDTA) and rinsing the plates once with methanol and once with chloroform. Each plate is first impregnated with 1 mM EDTA, pH 5.5, by ascending development using the method of Ruiz (J. Lipid Res. 38, 1482-1489, 1997). After each plate was completely developed, it was dried in air overnight. Once dry, each plate was developed in methanol, dried, and developed in chloroform in the same direction as the development with EDTA. The washed plates were then dried in air. Just prior to use, each plate was activated by heating to 110° C. for 10 minutes.
To prepare the TLC chamber for chromatography, Whatman (Clifton, N.J.) filter paper was cut into 20×80-cm strips and wrapped around the inside wall of a 30×60×10-cm glass development chamber. One hundred milliliters of the appropriate mobile phase was added to the chamber, and the chambers were sealed and allowed to equilibrate. Chambers were considered equilibrated when the solvent front had completely ascended the filter paper. The mobile phase employed for the separation of phospholipid classes (lyso-phospholipids, sphingomyelin, phosphatidylcholine, phosphatidylserine, phosphatidylethanolamine and cardiolipin) was a modification of the solvent system described by Holub and Skeaf (“Nutritional regulation of cellular phosphatidylinositol,” in Methods in Enzymology, ed. Conn, P. M. (Academic Press, Inc., Orlando), pp. 234-243, 1987) consisting of chloroform/methanol/acetic acid/water (100:67:7:4, by volume).
For the separation of neutral lipid classes (free fatty acids, free sterols, triacylglycerides and cholesterol esters), a solvent system consisting of petroleum ether/diethyl ether/acetic acid (80:20:1, by volume) was used (Mangold, Thin Layer Chromatography—A Laboratory Handbook (Springer-Verlag, New York), 1969).
After the TLC plate was activated, the sample extracts were spotted onto the activated plate. As a general rule, samples were spotted at an estimated concentration such that no single lipid class was present at more than 25 jig per centimeter of plate width following chromatography. This ensured that the plate was not overloaded and minimized the risk of cross-contamination between lipid classes (cross-contamination is readily identified during sample analysis as each lipid class contains unique internal standards). […]

With `C[C@H](Cc1ccc2c(c1)OC(C(=O)[O-])(C(=O)[O-])O2)NC[C@H](O)c1cccc(Cl)c1.[Na+].[Na+]` [CL316,243] the “Total n9” value (Liver, lipid class PS/I) was 5.4 percentage of total fatty acids, the “14:0” value (Liver, lipid class TAG) was 1.1 percentage of total fatty acids and the “16:0” value (Liver, lipid class TAG) was 32.1 percentage of total fatty acids. For the same molecule, the “16:1n7” value (Liver, lipid class TAG) was 3.2 percentage of total fatty acids, the “18:0” value (Liver, lipid class TAG) was 3.3 percentage of total fatty acids and the “18:1n7” value (Liver, lipid class TAG) was 2.9 percentage of total fatty acids. For the same molecule, the “18:1n9” value (Liver, lipid class TAG) was 34.1 percentage of total fatty acids, the “14:0” value (Plasma, CE) was 21.2 nanomoles per gram and the “16:0” value (Plasma, CE) was 114.4 nanomoles per gram. The “16:1n7” value (Plasma, CE) was 84.9 nanomoles per gram, the “18:0” value (Plasma, CE) was 16.5 nanomoles per gram and the “18:1n7” value (Plasma, CE) was 13.5 nanomoles per gram. For the same molecule, the “18:1n9” value (Plasma, CE) was 194.2 nanomoles per gram, the Saturates (Plasma, CE) was 162.9 nanomoles per gram and the “Total n7” value (Plasma, CE) was 98.4 nanomoles per gram. For the same molecule, the “Total n9” value (Plasma, CE) was 198.7 nanomoles per gram, the “Total nMole of FA” value (Plasma, CE) was 2584.1 nanomoles per gram and the “14:0” value (Plasma, FFA) was 22.1 nanomoles per gram. For the same molecule, the “16:0” value (Plasma, FFA) was 102.3 nanomoles per gram, the “16:1n7” value (Plasma, FFA) was 15.4 nanomoles per gram and the “18:0” value (Plasma, FFA) was 36.9 nanomoles per gram. For the same molecule, the “18:1n7” value (Plasma, FFA) was 9.8 nanomoles per gram, the “18:1n9” value (Plasma, FFA) was 160.6 nanomoles per gram and the Saturates (Plasma, FFA) was 167.7 nanomoles per gram. For the same molecule, the “Total n7” value (Plasma, FFA) was 25.2 nanomoles per gram, the “Total n9” value (Plasma, FFA) was 163.1 nanomoles per gram and the “Total nMole of FA” value (Plasma, FFA) was 424.7 nanomoles per gram. The “14:0” value (Plasma, LysoPC) was 2.9 nanomoles per gram, the “16:0” value (Plasma, LysoPC) was 241.6 nanomoles per gram and the “16:1n7” value (Plasma, LysoPC) was 4.8 nanomoles per gram. The “18:0” value (Plasma, LysoPC) was 127.4 nanomoles per gram, the “18:1n7” value (Plasma, LysoPC) was 6.9 nanomoles per gram and the “18:1n9” value (Plasma, LysoPC) was 47.5 nanomoles per gram. The Saturates (Plasma, LysoPC) was 381.9 nanomoles per gram, the “Total n7” value (Plasma, LysoPC) was 11.8 nanomoles per gram and the “Total n9” value (Plasma, LysoPC) was 49.4 nanomoles per gram. The “Total nMole of FA” value (Plasma, LysoPC) was 643.1 nanomoles per gram, the “14:0” value (Plasma, PC) was 5.5 nanomoles per gram and the “16:0” value (Plasma, PC) was 1121.4 nanomoles per gram. For the same molecule, the “16:1n7” value (Plasma, PC) was 15.3 nanomoles per gram, the “18:0” value (Plasma, PC) was 670.9 nanomoles per gram and the “18:1n7” value (Plasma, PC) was 58.8 nanomoles per gram. For the same molecule, the “18:1n9” value (Plasma, PC) was 309.6 nanomoles per gram, the Saturates (Plasma, PC) was 1820.6 nanomoles per gram and the “Total n7” value (Plasma, PC) was 74.0 nanomoles per gram. The “Total n9” value (Plasma, PC) was 320.0 nanomoles per gram, the “Total nMole of FA” value (Plasma, PC) was 1928.9 nanomoles per gram and the “14:0” value (Plasma, PE) was 4.1 nanomoles per gram. The “16:0” value (Plasma, PE) was 33.9 nanomoles per gram, the “16:1n7” value (Plasma, PE) was 3.3 nanomoles per gram and the “18:0” value (Plasma, PE) was 28.2 nanomoles per gram. For the same molecule, the “18:1n7” value (Plasma, PE) was 2.5 nanomoles per gram, the “18:1n9” value (Plasma, PE) was 31.5 nanomoles per gram and the Saturates (Plasma, PE) was 74.0 nanomoles per gram. For the same molecule, the “Total n7” value (Plasma, PE) was 5.8 nanomoles per gram, the “Total n9” value (Plasma, PE) was 33.4 nanomoles per gram and the “Total nMole of FA” value (Plasma, PE) was 106.7 nanomoles per gram. The “14:0” value (Plasma, PL) was 7.6 nanomoles per gram, the “16:0” value (Plasma, PL) was 1315.0 nanomoles per gram and the “16:1n7” value (Plasma, PL) was 20.3 nanomoles per gram. The “18:0” value (Plasma, PL) was 847.2 nanomoles per gram, the “18:1n7” value (Plasma, PL) was 69.7 nanomoles per gram and the “18:1n9” value (Plasma, PL) was 380.8 nanomoles per gram. For the same molecule, the Saturates (Plasma, PL) was 2221.2 nanomoles per gram, the “Total n7” value (Plasma, PL) was 90.0 nanomoles per gram and the “Total n9” value (Plasma, PL) was 429.4 nanomoles per gram. For the same molecule, the “Total nMole of FA” value (Plasma, PL) was 2464.5 nanomoles per gram, the “14:0” value (Plasma, TAG) was 17.6 nanomoles per gram and the “16:0” value (Plasma, TAG) was 219.3 nanomoles per gram. The “16:1n7” value (Plasma, TAG) was 33.1 nanomoles per gram, the “18:0” value (Plasma, TAG) was 45.7 nanomoles per gram and the “18:1n7” value (Plasma, TAG) was 23.7 nanomoles per gram. The “18:1n9” value (Plasma, TAG) was 268.3 nanomoles per gram, the Saturates (Plasma, TAG) was 295.4 nanomoles per gram and the “Total n7” value (Plasma, TAG) was 56.8 nanomoles per gram. The “Total n9” value (Plasma, TAG) was 276.2 nanomoles per gram, the “Total nMole of FA” value (Plasma, TAG) was 344.8 nanomoles per gram and the “14:0” value (Plasma, lipid class CE) was 0.8 percentage of total fatty acids. The “16:0” value (Plasma, lipid class CE) was 4.5 percentage of total fatty acids, the “16:1n7” value (Plasma, lipid class CE) was 3.2 percentage of total fatty acids and the “18:0” value (Plasma, lipid class CE) was 0.7 percentage of total fatty acids. For the same molecule, the “18:1n7” value (Plasma, lipid class CE) was 0.5 percentage of total fatty acids, the “18:1n9” value (Plasma, lipid class CE) was 7.5 percentage of total fatty acids and the “14:0” value (Plasma, lipid class FFA) was 5.7 percentage of total fatty acids. The “16:0” value (Plasma, lipid class FFA) was 28.1 percentage of total fatty acids, the “16:1n7” value (Plasma, lipid class FFA) was 3.2 percentage of total fatty acids and the “18:0” value (Plasma, lipid class FFA) was 10.0 percentage of total fatty acids. For the same molecule, the “18:1n7” value (Plasma, lipid class FFA) was 2.1 percentage of total fatty acids, the “18:1n9” value (Plasma, lipid class FFA) was 31.0 percentage of total fatty acids and the “14:0” value (Plasma, lipid class LY) was 0.5 percentage of total fatty acids. The “16:0” value (Plasma, lipid class LY) was 37.8 percentage of total fatty acids, the “16:1n7” value (Plasma, lipid class LY) was 0.7 percentage of total fatty acids and the “18:0” value (Plasma, lipid class LY) was 20.1 percentage of total fatty acids. For the same molecule, the “18:1n7” value (Plasma, lipid class LY) was 1.0 percentage of total fatty acids, the “18:1n9” value (Plasma, lipid class LY) was 7.2 percentage of total fatty acids and the “14:0” value (Plasma, lipid class PC) was 0.1 percentage of total fatty acids. The “16:0” value (Plasma, lipid class PC) was 29.0 percentage of total fatty acids, the “16:1n7” value (Plasma, lipid class PC) was 0.4 percentage of total fatty acids and the “18:0” value (Plasma, lipid class PC) was 17.5 percentage of total fatty acids. For the same molecule, the “18:1n7” value (Plasma, lipid class PC) was 1.5 percentage of total fatty acids, the “18:1n9” value (Plasma, lipid class PC) was 7.9 percentage of total fatty acids and the “14:0” value (Plasma, lipid class PE) was 1.9 percentage of total fatty acids. For the same molecule, the “16:0” value (Plasma, lipid class PE) was 16.1 percentage of total fatty acids, the “16:1n7” value (Plasma, lipid class PE) was 1.4 percentage of total fatty acids and the “18:0” value (Plasma, lipid class PE) was 13.5 percentage of total fatty acids. For the same molecule, the “18:1n7” value (Plasma, lipid class PE) was 1.1 percentage of total fatty acids, the “18:1n9” value (Plasma, lipid class PE) was 13.1 percentage of total fatty acids and the “14:0” value (Plasma, lipid class PL) was 0.2 percentage of total fatty acids. For the same molecule, the “16:0” value (Plasma, lipid class PL) was 26.6 percentage of total fatty acids, the “16:1n7” value (Plasma, lipid class PL) was 0.4 percentage of total fatty acids and the “18:0” value (Plasma, lipid class PL) was 17.3 percentage of total fatty acids. For the same molecule, the “18:1n7” value (Plasma, lipid class PL) was 1.4 percentage of total fatty acids, the “18:1n9” value (Plasma, lipid class PL) was 7.7 percentage of total fatty acids and the “14:0” value (Plasma, lipid class TAG) was 1.7 percentage of total fatty acids. For the same molecule, the “16:0” value (Plasma, lipid class TAG) was 21.1 percentage of total fatty acids, the “16:1n7” value (Plasma, lipid class TAG) was 3.2 percentage of total fatty acids and the “18:0” value (Plasma, lipid class TAG) was 4.4 percentage of total fatty acids. For the same molecule, the “18:1n7” value (Plasma, lipid class TAG) was 2.3 percentage of total fatty acids, the “18:1n9” value (Plasma, lipid class TAG) was 25.8 percentage of total fatty acids and the “palmitoleic acid concentrations in most lipid classes in heart, liver, adipose and plasma” value (male inbred NON mice, 0.001% CL316,243 in chow 4 weeks, vs controls (Tables 7 and 8)) was “substantial decrease”.
